Source: patent US11116735B2, “Use of substituted benzylideneguanidine derivatives as synergists for polymyxin antibiotics” (GUANGZHOU INSIGHTER BIOTECHNOLOGY CO., LTD., priority 2015, dated 2021)
Several values for one entry are separate records, joined by “and”; a condition that tells them apart may be missing. Identical values can stand only once.

Experiments:
[1] = system: E. coli 5F-1; experiment: MIC, resistance reversal by various concentrations of compound 3, E. coli 5F-1
Procedure: (§2) The compound 3 in this embodiment was in the form of a hydrochloride, i.e., the experiments were carried out with a hydrochloride of compound 3.
(§3) In vitro minimum inhibitory concentrations of colistin sulfate against the strains where the cultures respectively comprised various concentrations of compound 3 were also measured.

[2] = system: E. coli 4D-6; experiment: MIC by doubling dilution, colistin sulfate-resistant E. coli 4D-6
Procedure: (§4) In vitro minimum inhibitory concentrations of colistin sulfate against the strains where the cultures respectively comprised 20.0 ppm of the substituted benzylideneguanidine derivatives were also measured.

[3] = system: weanling piglets; experiment: Compound 3 in various dosages and colistin sulfate in the feed for weanling piglets; assay type: in vivo, Duroc×Landrace×Large crossbred lean weanling piglets; conditions: for Average daily weight gain / Diarrhea rate / Feed conversion ratio: ten days
Procedure: (§1) 90 28-day-aged Duroc×Landrace×Large crossbred lean weanling piglets similar in weight were divided into 9 groups, 10 piglets in each group. For each group, colistin sulfate and/or various dosages of compound 3 were added into the antibiotic-free creep feed. The piglets were given ad libitum access to feed and water during the experiment. Weight gain, feed efficiency and diarrhea rate of each group within ten days were recorded.

[4] = system: weanling piglets; experiment: Synergy of compound 3 and colistin sulfate in the feed for weanling piglets; assay type: in vivo, Duroc×Landrace×Large crossbred lean weanling piglets; conditions: for Average daily weight gain / Diarrhea rate / Feed conversion ratio: weanling piglets, ten days
Procedure: as §1, with “120” for “90”, “12” for “9”, “and/or” for “and/or various dosages of”

[5] = system: Shigella sp. 2D89; experiment: MIC, resistance reversal by various concentrations of compound 3, Shigella sp. 2D89
Procedure: as §2, §3

[6] = system: P. aeruginosa E543; experiment: MIC, resistance reversal by various concentrations of compound 3, P. aeruginosa E543
Procedure: as §2, §3

[7] = system: E. coli 5F-1; experiment: MIC by doubling dilution, colistin sulfate-resistant E. coli 5F-1
Procedure: as §4

[8] = system: Klebsiella sp. 4125; experiment: MIC, resistance reversal by various concentrations of compound 3, Klebsiella sp. 4125
Procedure: as §2, §3

[9] = system: various colistin sulfate-resistant Gram-negative bacteria; experiment: MIC by doubling dilution, summary over resistant species; conditions: compound 3 alone (hydrochloride)
Procedure: as §2, §3

[10] = system: Salmonella sp. 3087; experiment: MIC, resistance reversal by various concentrations of compound 3, Salmonella sp. 3087
Procedure: as §2, §3

[11] = system: E. coli 2S-19; experiment: MIC by doubling dilution, colistin sulfate-susceptible E. coli 2S-19; assay type: cell-based, Escherichia coli
[12] = system: E. coli 3Y-9; experiment: MIC by doubling dilution, colistin sulfate-susceptible E. coli 3Y-9; assay type: cell-based, Escherichia coli
[13] = system: E. coli 5W-7; experiment: MIC by doubling dilution, colistin sulfate-susceptible E. coli 5W-7; assay type: cell-based, Escherichia coli
[14] = system: E. coli 2G-7; experiment: MIC by doubling dilution, colistin sulfate-resistant E. coli 2G-7
Procedure: as §4

[15] = system: weanling piglets; experiment: Synergy of derivatives and colistin sulfate in the feed for weanling piglets; assay type: in vivo, Duroc×Landrace×Large crossbred lean weanling piglets; conditions: creep feed with 20 ppm colistin sulfate and 150 ppm derivative (hydrochloride), ten days
Procedure: as §1, with “substituted benzylideneguanidine derivatives” for “dosages of compound 3”

[16] = colistin sulfate with 0 ppm compound 3, or compound 3 (hydrochloride) in the absence of colistin sulfate
[17] = 20 ppm colistin sulfate + 10 ppm compound 3 in creep feed (Test 1)
[18] = 20 ppm colistin sulfate + 25 ppm compound 3 in creep feed (Test 2)
[19] = 20 ppm colistin sulfate + 50 ppm compound 3 in creep feed (Test 3)
[20] = 20 ppm colistin sulfate + 100 ppm compound 3 in creep feed (Test 4)
[21] = 20 ppm colistin sulfate + 200 ppm compound 3 in creep feed (Test 5)
[22] = 20 ppm colistin sulfate + 500 ppm compound 3 in creep feed (Test 6)
[23] = only 200 ppm compound 3 in creep feed, no colistin sulfate
[24] = 20 ppm colistin sulfate and 150 ppm compound 3 in creep feed (Test, groups 10-12)
[25] = 150 ppm in creep feed, no colistin sulfate (Control 2, groups 7-9)

For CC(C)Oc1ccc(C=NN=C(N)NN=Cc2ccc(OC(C)C)cc2)cc1 [Compound 3], the “In vitro MIC of colistin sulfate in the presence of compound 3” value (shortened to “In vitro MIC … of compound 3”) ([1]; 5 ppm compound 3) was 32.00 ppm, the “In vitro MIC … of compound 3” value ([1]; 10 ppm compound 3) was 8.00 ppm and the “In vitro MIC … of compound 3” value ([1]; 20 ppm compound 3) was 1.00 ppm. For the same compound, the “In vitro MIC … of compound 3” value ([1]; 40 ppm compound 3) was 1.00 ppm, the “In vitro MIC … of compound 3” value ([1]; 80 ppm compound 3) was 0.50 ppm and the “In vitro MIC of the substance alone” value [1, 16] was >800 ppm. For the same compound, the “In vitro minimum inhibitory concentration (MIC) of the substance alone” value ([2]; E. coli 4D-6, colistin sulfate-resistant, substance alone, derivatives as hydrochlorides) was >800 ppm, the “In vitro MIC of colistin sulfate in the presence of the substituted benzylideneguanidine derivative” value ([2]; E. coli 4D-6, resistant, culture comprised 20.0 ppm of the derivative (hydrochloride)) was 2.0 ppm and the “Average daily weight gain” value [3, 17] was 215 g. For the same compound, the Diarrhea rate [3, 17] was 30%, the Feed conversion ratio [3, 17] was 1.632 and the “Average daily weight gain” value [3, 18] was 226 g. For the same compound, the Diarrhea rate [3, 18] was 26%, the Feed conversion ratio [3, 18] was 1.578 and the “Average daily weight gain” value [3, 19] was 237 g. For the same compound, the Diarrhea rate [3, 19] was 20%, the Feed conversion ratio [3, 19] was 1.532 and the “Average daily weight gain” value [3, 20] was 248 g. For the same compound, the Diarrhea rate [3, 20] was 16%, the Feed conversion ratio [3, 20] was 1.499 and the “Average daily weight gain” value [3, 21] was 255 g. For the same compound, the Diarrhea rate [3, 21] was 6%, the Feed conversion ratio [3, 21] was 1.417 and the “Average daily weight gain” value [3, 22] was 259 g. For the same compound, the Diarrhea rate [3, 22] was 3%, the Feed conversion ratio [3, 22] was 1.428 and the “Dosage dependence of diarrhea rate and productivity” value ([3]; colistin sulfate added together with compound 3, weanling piglets) was “a higher dosage of compound 3 led to a better effect”. For the same compound, the “Average daily weight gain” value [3, 23] was 228 g, the Diarrhea rate [3, 23] was 29% and the Feed conversion ratio [3, 23] was 1.596. The “Reduction of the diarrhea rate” value ([4]; groups 10, 11 and 12: colistin sulfate added together with compound 3) was 20%, the “Average daily weight gain” value [4, 24] was 254 g and 248 g and 251 g and the Diarrhea rate [4, 24] was 12% and 9% and 10%. The Feed conversion ratio [4, 24] was 1.435 and 1.427 and 1.453, the “Average daily weight gain” value [4, 25] was 200 g and 205 g and 211 g and the Diarrhea rate [4, 25] was 36% and 38% and 34%. For the same compound, the Feed conversion ratio [4, 25] was 1.666 and 1.639 and 1.647, the “In vitro MIC … of compound 3” value ([5]; 5 ppm compound 3) was 16.00 ppm and the “In vitro MIC … of compound 3” value ([5]; 10 ppm compound 3) was 2.00 ppm. For the same compound, the “In vitro MIC … of compound 3” value ([5]; 20 ppm compound 3) was 1.00 ppm, the “In vitro MIC … of compound 3” value ([5]; 40 ppm compound 3) was 0.25 ppm and the “In vitro MIC … of compound 3” value ([5]; 80 ppm compound 3) was 0.25 ppm. The “In vitro MIC of the substance alone” value [5, 16] was >800 ppm, the “In vitro MIC … of compound 3” value ([6]; 5 ppm compound 3) was 32.00 ppm and the “In vitro MIC … of compound 3” value ([6]; 10 ppm compound 3) was 8.00 ppm. For the same compound, the “In vitro MIC … of compound 3” value ([6]; 20 ppm compound 3) was 2.00 ppm, the “In vitro MIC … of compound 3” value ([6]; 40 ppm compound 3) was 0.50 ppm and the “In vitro MIC … of compound 3” value ([6]; 80 ppm compound 3) was 0.50 ppm. For the same compound, the “In vitro MIC of the substance alone” value [6, 16] was >800 ppm, the “In vitro minimum inhibitory concentration (MIC) of the substance alone” value ([7]; E. coli 5F-1, colistin sulfate-resistant, substance alone, derivatives as hydrochlorides) was >800 ppm and the “In vitro MIC of colistin sulfate in the presence of the substituted benzylideneguanidine derivative” value ([7]; E. coli 5F-1, resistant, culture comprised 20.0 ppm of the derivative (hydrochloride)) was 1.0 ppm. For the same compound, the “In vitro MIC … of compound 3” value ([8]; 5 ppm compound 3) was 32.00 ppm, the “In vitro MIC … of compound 3” value ([8]; 10 ppm compound 3) was 8.00 ppm and the “In vitro MIC … of compound 3” value ([8]; 20 ppm compound 3) was 2.00 ppm. For the same compound, the “In vitro MIC … of compound 3” value ([8]; 40 ppm compound 3) was 1.00 ppm, the “In vitro MIC … of compound 3” value ([8]; 80 ppm compound 3) was 1.00 ppm and the “In vitro MIC of the substance alone” value [8, 16] was >800 ppm. For the same compound, the “Inhibitory activity on the tested strains” value [9] was “did not exhibit inhibitory activity”, the “In vitro MIC … of compound 3” value ([10]; 5 ppm compound 3) was 64.00 ppm and the “In vitro MIC … of compound 3” value ([10]; 10 ppm compound 3) was 16.00 ppm. The “In vitro MIC … of compound 3” value ([10]; 20 ppm compound 3) was 4.00 ppm, the “In vitro MIC … of compound 3” value ([10]; 40 ppm compound 3) was 2.00 ppm and the “In vitro MIC … of compound 3” value ([10]; 80 ppm compound 3) was 1.00 ppm. For the same compound, the “In vitro MIC of the substance alone” value [10, 16] was >800 ppm, the “In vitro minimum inhibitory concentration (MIC) of the substance alone” value ([11]; E. coli 2S-19, colistin sulfate-susceptible, substance alone, derivatives as hydrochlorides) was >800 ppm and the “In vitro MIC of colistin sulfate in the presence of the substituted benzylideneguanidine derivative” value ([11]; E. coli 2S-19, culture comprised 20.0 ppm of the derivative (hydrochloride), colistin sulfate serially diluted) was 0.50 ppm. The “In vitro minimum inhibitory concentration (MIC) of the substance alone” value ([12]; E. coli 3Y-9, colistin sulfate-susceptible, substance alone, derivatives as hydrochlorides) was >800 ppm, the “In vitro MIC of colistin sulfate in the presence of the substituted benzylideneguanidine derivative” value ([12]; E. coli 3Y-9, culture comprised 20.0 ppm of the derivative (hydrochloride), colistin sulfate serially diluted) was 0.50 ppm and the “In vitro minimum inhibitory concentration (MIC) of the substance alone” value ([13]; E. coli 5W-7, colistin sulfate-susceptible, substance alone, derivatives as hydrochlorides) was >800 ppm. For the same compound, the “In vitro MIC of colistin sulfate in the presence of the substituted benzylideneguanidine derivative” value ([13]; E. coli 5W-7, culture comprised 20.0 ppm of the derivative (hydrochloride), colistin sulfate serially diluted) was 0.25 ppm, the “In vitro minimum inhibitory concentration (MIC) of the substance alone” value ([14]; E. coli 2G-7, colistin sulfate-resistant, substance alone, derivatives as hydrochlorides) was >800 ppm and the “In vitro MIC of colistin sulfate in the presence of the substituted benzylideneguanidine derivative” value ([14]; E. coli 2G-7, resistant, culture comprised 20.0 ppm of the derivative (hydrochloride)) was 1.0 ppm. The “Average daily weight gain” value [15] was 258 g, the Diarrhea rate [15] was 8% and the Feed conversion ratio [15] was 1.441.
